Assay results as given in PubChem BioAssay AID2060512 (Molecular Pharmacology Branch, DTP, NCI, 2025).

Test system: 186277-243-T-J2-PDC complex spheroid viability
Experiment: Anticancer human tumor 186277-243-T-J2-PDC patient-derived colon adenocarcinoma cell line growth inhibition [GQUAD]
Settings: for IC50: curve of first compound; for viability, T/C: stronger effect = lower value; active means viability on the fitted dose curve at most 10% of control; inactive means the rest
Method in brief: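 Viability of tumor cells grown as complex spheroids with endothelial and stromal cells, exposed to drug combinations. Top concentration at or near clinical Cmax (else 10 microM), diluted in half-log increments.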

[1] = second compound 0.0316 µM, first compound 0.0316 µM
[2] = second compound 0.0316 µM, first compound 0.316 µM
[3] = second compound 0.1 µM, first compound 0.0316 µM
[4] = second compound 0.1 µM, first compound 0.316 µM
[5] = second compound 0.316 µM, first compound 0.0316 µM
[6] = second compound 0.316 µM, first compound 0.316 µM
[7] = second compound 1 µM, first compound 0.0316 µM
[8] = second compound 1 µM, first compound 0.316 µM
[9] = second compound 3.16 µM, first compound 0.0316 µM
[10] = second compound 3.16 µM, first compound 0.316 µM
[11] = second compound 10 µM, first compound 0.0316 µM
[12] = second compound 10 µM, first compound 0.316 µM
[13] = second compound 0.0316 µM, first compound 0.1 µM
[14] = second compound 0.0316 µM, first compound 1 µM
[15] = second compound 0.0316 µM, first compound 3.16 µM
[16] = second compound 0.0316 µM, first compound 10 µM
[17] = second compound 0.1 µM, first compound 0.1 µM
[18] = second compound 0.1 µM, first compound 1 µM
[19] = second compound 0.1 µM, first compound 3.16 µM
[20] = second compound 0.1 µM, first compound 10 µM
[21] = second compound 0.316 µM, first compound 0.1 µM
[22] = second compound 0.316 µM, first compound 1 µM
[23] = second compound 0.316 µM, first compound 3.16 µM
[24] = second compound 0.316 µM, first compound 10 µM
[25] = second compound 1 µM, first compound 0.1 µM
[26] = second compound 1 µM, first compound 1 µM
[27] = second compound 1 µM, first compound 3.16 µM
[28] = second compound 1 µM, first compound 10 µM
[29] = second compound 3.16 µM, first compound 0.1 µM
[30] = second compound 3.16 µM, first compound 1 µM
[31] = second compound 3.16 µM, first compound 3.16 µM
[32] = second compound 3.16 µM, first compound 10 µM
[33] = second compound 10 µM, first compound 0.1 µM
[34] = second compound 10 µM, first compound 1 µM
[35] = second compound 10 µM, first compound 3.16 µM
[36] = second compound 10 µM, first compound 10 µM
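Wherever viability, T/C is given: 100% = DMSO vehicle control viability.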

Cn1ncnc1[C@H]1c2n[nH]c(=O)c3cc(F)cc(c23)N[C@@H]1c1ccc(F)cc1 + CN(C)c1ccc(Nc2c3ccc(NC(=O)CCN4CCCC4)cc3nc3cc(NC(=O)CCN4CCCC4)ccc23)cc1
> 0.316 µM: IC50 (second compound 0.0316 µM) | IC50 (second compound 0.1 µM) | IC50 (second compound 0.316 µM) | IC50 (second compound 1 µM) | IC50 (second compound 3.16 µM) | IC50 (second compound 10 µM)
inactive: viability, T/C (second compound 0.0316 µM, first compound 0.000999 µM) 91.8% | viability, T/C (second compound 0.0316 µM, first compound 0.00316 µM) 104% | viability, T/C (second compound 0.0316 µM, first compound 0.00999 µM) 108% | viability, T/C [1] 80.6% | viability, T/C (second compound 0.0316 µM, first compound 0.0999 µM) 86.6% | viability, T/C [2] 76.8% | viability, T/C (second compound 0.1 µM, first compound 0.000999 µM) 108% | viability, T/C (second compound 0.1 µM, first compound 0.00316 µM) 113% | viability, T/C (second compound 0.1 µM, first compound 0.00999 µM) 96.2% | viability, T/C [3] 114% | viability, T/C (second compound 0.1 µM, first compound 0.0999 µM) 90.2% | viability, T/C [4] 82% | viability, T/C (second compound 0.316 µM, first compound 0.000999 µM) 83.8% | viability, T/C (second compound 0.316 µM, first compound 0.00316 µM) 108% | viability, T/C (second compound 0.316 µM, first compound 0.00999 µM) 102% | viability, T/C [5] 115% | viability, T/C (second compound 0.316 µM, first compound 0.0999 µM) 92.1% | viability, T/C [6] 86.8% | viability, T/C (second compound 1 µM, first compound 0.000999 µM) 105% | viability, T/C (second compound 1 µM, first compound 0.00316 µM) 91.8% | viability, T/C (second compound 1 µM, first compound 0.00999 µM) 97.6% | viability, T/C [7] 106% | viability, T/C (second compound 1 µM, first compound 0.0999 µM) 85.6% | viability, T/C [8] 85% | viability, T/C (second compound 3.16 µM, first compound 0.000999 µM) 101% | viability, T/C (second compound 3.16 µM, first compound 0.00316 µM) 94.7% | viability, T/C (second compound 3.16 µM, first compound 0.00999 µM) 107% | viability, T/C [9] 94% | viability, T/C (second compound 3.16 µM, first compound 0.0999 µM) 85.5% | viability, T/C [10] 94.6% | viability, T/C (second compound 10 µM, first compound 0.000999 µM) 114% | viability, T/C (second compound 10 µM, first compound 0.00316 µM) 92.3% | viability, T/C (second compound 10 µM, first compound 0.00999 µM) 99.2% | viability, T/C [11] 106% | viability, T/C (second compound 10 µM, first compound 0.0999 µM) 83.6% | viability, T/C [12] 82%

C=CCn1c(=O)c2cnc(Nc3ccc(N4CCN(C)CC4)cc3)nc2n1-c1cccc(C(C)(C)O)n1 + Cc1cnc(CNC(=O)c2c(=O)c3ccc(N4CCCN(C)CC4)nc3n3c2sc2ccccc23)cn1
inactive: viability, T/C [1] 93.8% | viability, T/C [13] 54.3% | viability, T/C [2] 22% | viability, T/C [14] 10.2% | viability, T/C [15] 12.2% | viability, T/C [16] 15.5% | viability, T/C [3] 49.1% | viability, T/C [17] 44.2% | viability, T/C [4] 25.8% | viability, T/C [18] 14.7% | viability, T/C [19] 13.8% | viability, T/C [20] 20.5% | viability, T/C [5] 51.8% | viability, T/C [21] 46.4% | viability, T/C [6] 33.5% | viability, T/C [22] 17.6% | viability, T/C [23] 17.8% | viability, T/C [24] 24.1% | viability, T/C [7] 27.7% | viability, T/C [25] 35.9% | viability, T/C [8] 30.5% | viability, T/C [26] 24.4% | viability, T/C [27] 23.5% | viability, T/C [28] 26.4% | viability, T/C [9] 34.5% | viability, T/C [29] 31.7% | viability, T/C [10] 34.5% | viability, T/C [30] 21.9% | viability, T/C [31] 23.4% | viability, T/C [32] 22.6% | viability, T/C [11] 31.8% | viability, T/C [33] 31.6% | viability, T/C [12] 31.5% | viability, T/C [34] 22.9% | viability, T/C [35] 22.8% | viability, T/C [36] 24.4%
0.117 µM: IC50 (second compound 0.0316 µM)
< 0.0316 µM: IC50 (second compound 0.1 µM) | IC50 (second compound 1 µM) | IC50 (second compound 3.16 µM) | IC50 (second compound 10 µM)
0.0351 µM: IC50 (second compound 0.316 µM)

CC1COCCN1c1cc(C2(S(C)(=N)=O)CC2)nc(-c2ccnc3[nH]ccc23)n1 (stereo unspecified) + Cc1cnc(CNC(=O)c2c(=O)c3ccc(N4CCCN(C)CC4)nc3n3c2sc2ccccc23)cn1
inactive: viability, T/C [1] 107% | viability, T/C [13] 92.4% | viability, T/C [2] 89.8% | viability, T/C [14] 39.4% | viability, T/C [15] 13.1% | viability, T/C [3] 101% | viability, T/C [17] 73.4% | viability, T/C [4] 68.2% | viability, T/C [18] 39.8% | viability, T/C [19] 18.4% | viability, T/C [5] 73.3% | viability, T/C [21] 83.1% | viability, T/C [6] 66.7% | viability, T/C [22] 47.5% | viability, T/C [23] 27.2% | viability, T/C [24] 17% | viability, T/C [7] 46.2% | viability, T/C [25] 64.6% | viability, T/C [8] 64.6% | viability, T/C [26] 41.6% | viability, T/C [27] 31.6% | viability, T/C [28] 21.3% | viability, T/C [9] 41.8% | viability, T/C [29] 48.6% | viability, T/C [10] 50.6% | viability, T/C [30] 44.5% | viability, T/C [31] 39.2% | viability, T/C [32] 19.4% | viability, T/C [11] 50.6% | viability, T/C [33] 52% | viability, T/C [12] 43.2% | viability, T/C [34] 37% | viability, T/C [35] 31.6% | viability, T/C [36] 22%
active: viability, T/C [16] 8.67% | viability, T/C [20] 9.76%
0.564 µM: IC50 (second compound 1 µM)
< 0.0316 µM: IC50 (second compound 3.16 µM)
0.787 µM: IC50 (second compound 0.0316 µM)
0.885 µM: IC50 (second compound 0.316 µM)
0.579 µM: IC50 (second compound 0.1 µM)
0.0654 µM: IC50 (second compound 10 µM)
